For one test, the system named is sensory neurons. The test can be described thus: Sensitization of sensory neurons in fura-2 Ca2+ imaging and whole cell patch recordings. Format: cell-based. An excerpt:
Macrophages can be added to any of the tissue scaffolds in the bioreactor to assess their contribution to joint pain modeled by the neu-microJoint bioreactor. M1 macrophages are a classically activated pro-inflammatory cell type that express pro-inflammatory cytokines, chemokines and many other substances. M2 macrophages are alternatively activated and have an anti-inflammatory pro-tissue regenerative phenotype.

Test [1] concerns cartilage (in the upper part of the bone/cartilage chamber). The test can be described thus: IL1β OA model in the neu-microJoint bioreactor: mRNA expression in cartilage. The test is classed as cell-based, human. The conditions noted are these: IL1β applied to the synovium flow only; cartilage not directly exposed; 10 ng/mL for 1 week. An excerpt:
For the tissue scaffolds containing synovial cells, adipose cells, chondrocytes, or osteocytes, human mesenchymal stem cells (MSCs, >98% positive to CD73, 90, 105 and >99% negative to CD31, 34, 45, capable of colony formation and trilineage differentiation) or human iPSCs-derived MSCs (iMPCs) are encapsulated in photo-crosslinked gelatin scaffolds, and then subjected to tissue specific media to generate individual synovium, adipose, osteochondral tissues, as well as an additional individual macrophage component. After maturation, these tissue constructs are assembled with the chamber body inserts as described herein and inserted into the outer chambers of the neu-microJoint bioreactor, the fluid conduits are tapped and connected to suitable tubing, and tissue culture medium is pumped through the device to perfuse the tissue scaffolds. […]
Since IL1β that is used to generate the OA model is only applied to the flow of synovium, it indirectly stimulates the other tissues. […] As this may be part of the OA process, retrograde tracers may be used to distinguish activity in neurons innervating the synovium chamber from those innervating other chambers, and corresponding neural activity is monitored.

Another test has as its system DRG neurons. The test can be described thus: Spiking of DRG neurons on MEAs in the central chamber of the neu-microJoint bioreactor in response to KCl. Format: cell-based. The conditions noted are these: 30 mM KCl; DRG neurons cultured on MEAs for 4 days; screened with 10, 30 and 50 mM; little to no spontaneous activity at baseline. The protocol:
Acutely dissociated DRG neurons are plated in the neural chamber and cultured in 2D at a density of […] to enable recording of neural activity, for example with microelectrodes or MEAs embedded in the floor of the chamber.
To enable recording of neural activity, sensory neurons are plated on a high-density microelectrode array (MEA) embedded in the floor of the neuron bioreactor chamber. Additionally, over the course of 28 days, the neurites reach the synovium, bone, and adipose chambers. In addition, they are functional, as assessed by the ability to maintain physiological cytosolic Ca^2+ concentrations (˜100 nM), a healthy resting membrane potential <−50 mV, and overshooting action potentials in response to physiological stimuli.
DRG neurons cultured on MEAs for 4 days in the central chamber of the neu-microJoint bioreactor were screened with increasing concentrations of KCl (10, 30, and 50 mM) to detect spiking.

In the case of `CCCCC[C@H](O)/C=C/[C@H]1[C@H](O)CC(=O)[C@@H]1C/C=C\CCCC(=O)O` [PGE2, prostaglandin E2], in the test with sensory neurons, the “sensitization of sensory neurons” value is on record as “sensitize sensory neurons”.
Take tumor necrosis factor (TNF)-α: in the test on sensory neurons, the “sensitization of sensory neurons” value is recorded as “sensitize sensory neurons”.
“IL-6: factor generated by M1 macrophages; cytokine”: in the test on sensory neurons, the “sensitization of sensory neurons” value is “sensitize sensory neurons”.
Take “IL1β: cytokine used to trigger OA conditions in the outer chambers”: in test [1], the “ADAMTS 4 mRNA expression in cartilage” value was “significant increases” and the “MMP13 mRNA expression in cartilage” value is “significant increases”.
Take `[Cl-].[K+]` [KCl]: the “spiking activity of DRG neurons” value with DRG neurons was “activity was detected”.

(Values after patent US20250283019A1, “NEURO-INTEGRATED BIOREACTOR SYSTEM FOR STUDYING JOINT PAIN AND TREATMENT THEREOF” (University of Pittsburgh - Of the Commonwealth System of …, priority 2022, published 2025).)
